The values below come from ChEMBL document CHEMBL6071153, “Design, synthesis, and evaluation of antitumor activity in Pseudolaric acid B Azole derivatives: Novel and potent angiogenesis inhibitor via regulation of the PI3K/AKT and MAPK mediated HIF-1/VEGF signaling pathway” (Eur J Med Chem, 2024).

pIC50: −log10 of the molar value. Active and inactive are the calls of the source. The calls are words filed in the database; no cut-off is given here.

For series [1], the system named is MDA-MB-231. Description: Cytotoxicity against human MDA-MB-231 cells assessed as inhibition of cell growth incubated for 96 hrs under hypoxic condition by MTT assay. The following applies: MDA-MB-231, 96 h. The format is functional, cell-based.
For series [2], the system named is SiHa. Briefly: Inhibition of HIF-1beta in human SiHa cells assessed as downregulation of HIF-1beta protein expression incubated upto 60 mins under hypoxic condition in presence of MG-132 by Western blotting analysis. The format is cell-based.
Series [3] can be described thus: Inhibition of PI3K/AKT/mTOR signalling pathway in human SiHa cells assessed as downregulation of p38 protein expression at 10 uM incubated for 24 hrs under hypoxic condition by Western blotting analysis. It counts as cell-based.
For series [4], the system named is HUVEC. Description: Antiangiogenic activity against human HUVEC cells assessed as inhibition of blood vessel formation at 1 to 10 uM incubated for 4 hrs under hypoxic condition by fluorescence microscopic analysis. Particulars: dose 1-10 µM. It counts as functional, cell-based.
The subject of series [5] is SiHa. Description: Antitumor activity against human SiHa cells xenografted in Balb/c mouse assessed as reduction in tumor growth at 30 mg/kg,ip administration measured after 22 days. The format is functional, organism-based. The following applies: time 22.0 day.
For series [6], the system named is SiHa. Briefly: Antitumor activity against human SiHa cells xenografted in Balb/c mouse assessed as reduction in VEGF expression in tumor at 30 mg/kg,ip administration measured after 22 days by immunohistochemical staining based analysis. It counts as functional, organism-based. The following applies: time 22.0 day.
Series [7] in a line: Toxicity in Balb/c mouse assessed as fatality at 50 mg/kg,ip administration for 1 week. The format is organism-based. Particulars: in vivo, 168 h, time 1 weeks.
Series [8] relates to SiHa. Description: Inhibition of VEGFR in human SiHa cells incubated for 24 hrs under hypoxic condition by ELISA. The format is cell-based.
In series [9] the test system is SiHa. Briefly: Cytotoxicity against human SiHa cells assessed as inhibition of cell growth incubated for 24 hrs under normoxic condition by MTT assay. The format is functional, cell-based.
The nature of series [10]: Inhibition of PI3K/AKT/mTOR signalling pathway in human SiHa cells assessed as downregulation of ERK1/2 phosphorylation at 10 uM incubated for 24 hrs under hypoxic condition by Western blotting analysis. The format is cell-based.
The nature of series [11]: Inhibition of PI3K/AKT/mTOR signalling pathway in human SiHa cells assessed as downregulation of ERK1/2 protein expression at 10 uM incubated for 24 hrs under hypoxic condition by Western blotting analysis. The format is cell-based.
For series [12], the system named is HUVEC. Briefly: Inhibition of cell invasion in human HUVEC cells at 1 to 10 uM incubated for 48 hrs under hypoxic condition by crystal violet staining based microscopic analysis relative to PAB. It counts as functional. The following applies: dose 1-10 µM.
For series [13], the system named is HUVEC. Briefly: Inhibition of cell migration in human HUVEC cells incubated upto 48 hrs under hypoxic condition by microscopic analysis. The format is functional, cell-based.
Series [14] in a line: Inhibition of PI3K/AKT/mTOR signalling pathway in human SiHa cells assessed as downregulation of p38 phosphorylation at 10 uM incubated for 24 hrs under hypoxic condition by Western blotting analysis. The format is cell-based.
For series [15], the system named is SiHa. Briefly: Inhibition of hypoxia-induced HIF-1beta accumulation in human SiHa cells at 0.3 to 10 uM incubated for 24 hrs under hypoxic condition by Western blotting analysis. It counts as functional, cell-based. The following applies: dose 0.3-10 µM.
Series [16] deals with SiHa. Description: Antitumor activity against human SiHa cells xenografted in Balb/c mouse assessed as reduction in HIF-1alpha expression in tumor at 30 mg/kg,ip administration measured after 22 days by immunohistochemical staining based analysis. The format is functional, organism-based. The following applies: time 22.0 day.
Series [17] can be described thus: Inhibition of PI3K/AKT/mTOR signalling pathway in human SiHa cells assessed as downregulation of JNK phosphorylation at 10 uM incubated for 24 hrs under hypoxic condition by Western blotting analysis. The format is cell-based.
Series [18] can be described thus: Toxicity in Balb/c mouse xenografted with human SiHa cells assessed as reduction in body weight at 30 mg/kg,ip administration measured after 22 days. It counts as organism-based. The following applies: in vivo, 528 h, time 22 day.
Series [19] is described as follows: Inhibition of PI3K/AKT/mTOR signalling pathway in human SiHa cells assessed as downregulation of AKT protein expression at 0.3 to 10 uM incubated for 24 hrs under hypoxic condition by Western blotting analysis. The format is cell-based. Particulars: dose 0.3-10 µM.
Series [20] has as its target Hypoxia-inducible factor 1-alpha (Homo sapiens) (UniProt Q16665). Briefly: Inhibition of HIF-1alpha in human SiHa cells assessed as downregulation of HIF-1alpha protein expression incubated upto 60 mins under hypoxic condition in presence of CHX by Western blotting analysis. The format is cell-based.
The target is the same in series [21]. Description: Inhibition of HIF-1alpha in human SiHa cells assessed as downregulation of HIF-1alpha protein expression incubated upto 60 mins under hypoxic condition by Western blotting analysis. It counts as cell-based.
Series [22] is described as follows: Inhibition of PI3K/AKT/mTOR signalling pathway in human SiHa cells assessed as downregulation of mTOR protein expression at 0.3 to 10 uM incubated for 24 hrs under hypoxic condition by Western blotting analysis. It counts as cell-based. Particulars: dose 0.3-10 µM.
Series [23] is described as follows: Inhibition of PI3K/AKT/mTOR signalling pathway in human SiHa cells assessed as downregulation of JNK protein expression at 10 uM incubated for 24 hrs under hypoxic condition by Western blotting analysis. It counts as cell-based.
In series [24] the test system is SiHa. Description: Inhibition of hypoxia-induced HIF-1alpha accumulation in human SiHa cells assessed as decrease in nuclear HIF-1alpha level at 10 uM incubated for 24 hrs under hypoxic condition by immunofluorescence staining based analysis. The format is functional, cell-based.
Series [25] has as its system HUVEC. Description: Inhibition of cell migration in human HUVEC cells at 1 uM incubated for 48 hrs under hypoxic condition by microscopic analysis relative to PAB. It counts as functional.
Series [26] relates to HUVEC. Description: Inhibition of cell migration in human HUVEC cells at 10 uM incubated for 48 hrs under hypoxic condition by microscopic analysis relative to PAB. It counts as functional.
In series [27] the test system is SiHa. Description: Antitumor activity against human SiHa cells xenografted in Balb/c mouse assessed as reduction in tumor volume at 30 mg/kg,ip administration measured after 22 days. The format is functional, organism-based. The following applies: time 22.0 day.
The test system of series [28] is SiHa. Description: Antitumor activity against human SiHa cells xenografted in Balb/c mouse assessed as reduction in tumor weight at 30 mg/kg,ip administration measured after 22 days. The format is functional, organism-based. Particulars: time 22.0 day.
Series [29] can be described thus: Toxicity in Balb/c mouse assessed as change in animal fur at 50 mg/kg,ip administration for 1 week. The format is organism-based. Particulars: in vivo, 168 h, time 1 weeks.
Series [30] concerns SiHa. Briefly: Inhibition of hypoxia-induced HIF-1alpha accumulation in human SiHa cells at 0.3 to 10 uM incubated for 24 hrs under hypoxic condition by Western blotting analysis. The format is functional, cell-based. Particulars: dose 0.3-10 µM.
Series [31] is described as follows: Inhibition of PI3K/AKT/mTOR signalling pathway in human SiHa cells assessed as downregulation of PI3K protein expression at 0.3 to 10 uM incubated for 24 hrs under hypoxic condition by Western blotting analysis. The format is cell-based. The following applies: dose 0.3-10 µM.
The test system of series [32] is HUVEC. Briefly: Inhibition of cell migration in human HUVEC cells at 3 uM incubated for 48 hrs under hypoxic condition by microscopic analysis relative to PAB. It counts as functional.
The subject of series [33] is SiHa. Description: Inhibition of VEGFR in human SiHa cells assessed as decrease in intracellular VEGFR protein expression at 10 uM incubated for 24 hrs under hypoxic condition by immunofluorescence staining based analysis. The format is cell-based.
The target in series [34] is Hypoxia-inducible factor 1-alpha (Homo sapiens) (UniProt Q16665). Description: Inhibition of HIF-1alpha in human SiHa cells assessed as downregulation of HIF-1alpha protein expression incubated upto 60 mins under hypoxic condition in presence of MG-132 by Western blotting analysis. The format is cell-based.
Series [35] is described as follows: Inhibition of VEGFR mediated endocytosis in human SiHa cells incubated for 24 hrs under hypoxic condition by ELISA. The format is cell-based.
The test system of series [36] is HUVEC. Description: Inhibition of cell migration in human HUVEC cells at 1 to 10 uM under hypoxic condition by microscopic analysis. It counts as functional, cell-based. Particulars: dose 1-10 µM, TDE = time-dependent effect.
In series [37] the test system is MDA-MB-231. Description: Cytotoxicity against human MDA-MB-231 cells assessed as fold increase in inhibition of cell growth incubated for 96 hrs under hypoxic condition by MTT assay relative to 4-hydroxycoumarin. The format is functional.
The test system of series [38] is MDA-MB-231. Description: Cytotoxicity against human MDA-MB-231 cells assessed as fold increase in inhibition of cell growth incubated for 96 hrs under hypoxic condition by MTT assay relative to doxorubicin. It counts as functional.
The test system of series [39] is HUVEC. Briefly: Inhibition of cell migration in human HUVEC cells at 10 uM incubated for 48 hrs under hypoxic condition by microscopic analysis relative to M2. The format is functional, cell-based.
Series [40] concerns HUVEC. Briefly: Antiangiogenic activity against human HUVEC cells assessed as inhibition of blood vessel formation at 10 uM incubated for 4 hrs under hypoxic condition by fluorescence microscopic analysis. It counts as functional, cell-based.
Series [41] relates to SiHa. Briefly: Inhibition of hypoxia-induced HIF-1alpha accumulation in human SiHa cells at 10 uM incubated for 24 hrs under hypoxic condition by Western blotting analysis. The format is functional, cell-based.
Series [42] concerns SiHa. Briefly: Inhibition of VEGFR in human SiHa cells assessed as decrease in intracellular VEGFR protein expression at 10 uM incubated for 24 hrs under hypoxic condition by immunofluorescence staining based analysis relative to M2. It counts as cell-based.
The subject of series [43] is SiHa. Description: Inhibition of hypoxia-induced HIF-1beta accumulation in human SiHa cells at 10 uM incubated for 24 hrs under hypoxic condition by Western blotting analysis. The format is functional, cell-based.

Sequence of Hypoxia-inducible factor 1-alpha (Homo sapiens) (Q16665 whole entry, looked up): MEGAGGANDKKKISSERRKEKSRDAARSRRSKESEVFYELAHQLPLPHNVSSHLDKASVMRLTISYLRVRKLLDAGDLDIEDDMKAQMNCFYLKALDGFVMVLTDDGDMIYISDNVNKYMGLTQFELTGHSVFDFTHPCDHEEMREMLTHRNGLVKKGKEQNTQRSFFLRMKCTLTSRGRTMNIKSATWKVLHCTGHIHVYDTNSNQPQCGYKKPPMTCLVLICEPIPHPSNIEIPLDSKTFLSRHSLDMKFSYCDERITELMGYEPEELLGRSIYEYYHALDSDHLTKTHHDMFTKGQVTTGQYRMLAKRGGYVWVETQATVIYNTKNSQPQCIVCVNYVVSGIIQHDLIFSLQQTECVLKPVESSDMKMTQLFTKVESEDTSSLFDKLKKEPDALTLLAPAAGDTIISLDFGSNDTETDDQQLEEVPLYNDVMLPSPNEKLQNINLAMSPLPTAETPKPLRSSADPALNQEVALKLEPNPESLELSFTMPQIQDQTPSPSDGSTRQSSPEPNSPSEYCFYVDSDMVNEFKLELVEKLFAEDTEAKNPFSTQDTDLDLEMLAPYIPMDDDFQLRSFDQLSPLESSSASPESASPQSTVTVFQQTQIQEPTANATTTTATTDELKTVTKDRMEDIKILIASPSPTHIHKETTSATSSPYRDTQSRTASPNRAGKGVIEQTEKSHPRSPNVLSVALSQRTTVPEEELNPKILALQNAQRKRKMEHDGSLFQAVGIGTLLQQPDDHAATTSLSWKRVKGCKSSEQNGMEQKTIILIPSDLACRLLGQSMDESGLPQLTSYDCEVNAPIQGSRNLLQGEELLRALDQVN

`O=c1cc(O)c2ccccc2o1` [4-HYDROXYCOUMARINS]: the pIC50 with MDA-MB-231 [1] was less than 4.00.

Turning to `COC(=O)C1=CC[C@@]23CC[C@@H]([C@@](C)(/C=C/C=C(\C)C(=O)OCC(=O)NCc4cn(-c5ccc(Cl)cc5)nn4)OC2=O)[C@@]3(OC(C)=O)CC1`, the inhibition result (in the series on SiHa [2]; in [3]; in series [11]; in [20]; in series [23]) was “inactive” in each case. Also, the result with HUVEC [4], in the series with SiHa [5], with SiHa [6], in the series on SiHa [16], in the series on SiHa [27] and with SiHa [28] was Active. The Activity result in [7], in series [18] and in series [29] was “Non-Toxic” throughout. Besides, the inhibition result in the series with SiHa [8] is “Dose-Dependent Effect”; in the series on HUVEC [13] it was “Dose-Dependent Effect”; in the series on HUVEC [36], “Tde”. Also, the pIC50 with SiHa [9] is less than 4.52; in [35], 6.17. The inhibition entry (in series [10]; in the series with HUVEC [12]; in [14]; with SiHa [15]; in series [17]; in series [19]) was “Active” in each case. The inhibition entry (in [21]; in series [22]; in the series on SiHa [24]; in the series on SiHa [30]; in series [31]; with SiHa [33]) was “Active” each time. Further, the inhibition entry in series [34] is “Active”. Besides, 1 µM produced 35.6% inhibition in the series with HUVEC [25]. Also, the inhibition at 10 µM in the series on HUVEC [26] was found to be 88.8%. Besides, testing at 3 µM with HUVEC [32] gave an inhibition of 66.1%.

For `COc1ccc(NC(=O)c2ccc(-n3cc(COc4cc(=O)oc5ccccc45)nn3)cc2)cc1OC`, the “fold change (FC)” value in the series with MDA-MB-231 [37] was 5000; with MDA-MB-231 [38], 20.

In the case of `COC(=O)C1=CC[C@@]23CC[C@@H]([C@@](C)(/C=C/C=C(\C)C(=O)O)OC2=O)[C@@]3(OC(C)=O)CC1` [PSEUDOLARIC ACID B], the result in the series on SiHa [5], with SiHa [27], in the series on SiHa [28] and in the series on HUVEC [40] was Active. Further, the Activity result in [7], in series [18] and in series [29] was “Non-Toxic” in each case. Besides, the inhibition result in the series with HUVEC [39], in the series on SiHa [41], with SiHa [42] and in the series on SiHa [43] was “Active” throughout. Moreover, the pIC50 in the series with SiHa [9] was less than 4.52; in series [35], 5.26. Besides, in series [17], the inhibition entry is “inactive”. The same compound displayed an inhibition at 10 µM in the series with HUVEC [26] of 68.5%.
